Results published in patent US12187696B2, “Urea motif containing compounds and derivatives thereof as antibacterial drugs” (Technische Universität München, priority 2016, dated 2025).
Values after ≈ are worked out from the molar mass of the structure shown. “Also recorded” adds a separate entry of the source.

Columns and labels:
[1] = test system: Staphylococcus aureus NCTC8325; assay: Minimal inhibitory concentration (MIC) assay; type: cell-based; settings: for MIC: Staphylococcus aureus NCTC8325, B medium
Procedure: Minimum inhibitory concentrations (MICs) represent the lowest concentration of sample that will inhibit the visible growth of a microorganism after overnight incubation, and was obtained by a 96 well plate-based assay (Thermo Scientific) with serial dilutions of the probes tested. […] Bacteria were diluted in fresh medium to a concentration of 10^5 CFU/mL. In the case of all other bacteria species tested, fresh media was inoculated 1/10000 and directly used for testing. Diluted bacterial cultures (99 μL) were added to various concentrations of probe (1 μL of the respective stock in DMSO). A growth control containing DMSO (1 μL) and cultivated medium (99 μL) and a sterile control containing fresh medium (100 μL) were run on every 96 well plate in triplicates. After incubation at 37° C. with gentle shaking (200 rpm) for 24 h, the dilution series was analysed for microbial growth, usually indicated by turbidity and/or a pellet of bacteria at the bottom of the well. The lowest concentration in the dilution series at which no growth of bacteria could be observed by eye was defined as the minimum inhibitory concentration (MIC) of the probe. MIC values were determined by three independent experiments with at least triplicate runs for each concentration. […] Both compounds were tested against various bacterial strains. […] The assay was performed as described above.

[2] = test system: Staphylococcus aureus IS050611; assay: Minimal inhibitory concentration (MIC) assay; type: cell-based; settings: Staphylococcus aureus IS050611 (clinical isolate); B medium
[3] = test system: Staphylococcus aureus VA417350; assay: Minimal inhibitory concentration (MIC) assay; type: cell-based; settings: Staphylococcus aureus VA417350 (clinical isolate); B medium
[4] = test system: Mycobacterium smegmatis mc^2 155; assay: Minimal inhibitory concentration (MIC) assay; type: cell-based; settings: Mycolicibacterium smegmatis, MC^2155, LB medium
[5] = test system: A549, HeLa, HepG2 and NIH/3T3 cells; assay: Cytotoxicity assay (MTT); type: cell-based, human; settings: 24 h incubation, various cell lines
Procedure: The MTT assay was performed in 96 well plates. A549, HeLa and HepG2 cells were seeded with 4000 cells/well, whereas NIH/3T3 cells were seeded with 2000 cells/well. Cells were grown to 30-40% confluence at 37° C. and 5% CO2 over a time span of 24 h. The medium was removed and 100 μL medium/well containing varying concentrations of the respective compound and a final DMSO concentration of 0.1% were added to the cells in triplicates and incubated at 37° C. and 5% CO2 for 24 h. 20 μL Thiazolyl blue tetrazolium bromide (5 mg/mL in PBS, Sigma Aldrich) were added to the cells and incubated at 37° C. and 5% CO2 for 4 h until complete consumption was observed. After removal of the medium, the resulting formazan was dissolved in 200 μL DMSO. Optical density was measured at 570 nm (562 nm) and background subtracted at 630 nm (620 nm) by a TECAN Infinite M200 Pro.

[6] = test system: S. aureus DSM 4910 (NCTC 8325) biofilm; assay: Minimum biofilm eradication concentration (MBEC) assay; type: cell-based
Procedure: To each well of a flat-bottomed 96-well plate (BD Biosciences, BD 351172) 200 μL of overnight culture of bacteria diluted 1:100 in media is added. Plates are incubated for 24 hours at 37° C. to establish biofilms. After 24 hours, the wells are carefully emptied by inverting the plate and gently shaking. A pre-mixed solution of media and compound stock solution is added to each well and plates are incubated at 37° C. […] 100 μL of supernatant from each well are transferred to a fresh 96-well flat bottomed plate and the OD at 595 nm is measured using a plate reader (POLARstar Omega, BMG Labtech). Concentrations of compound yielding a regrown OD of less than 0.1 correspond to the MBEC. Six replicates are completed for each concentration of compound as well as positive and negative controls. […] DMSO was used as negative control compound, Oxacillin was used as positive control compound. Levels of crystal violet retained were measured spectrophotometrically at an OD of 595 nm. Concentrations of compound yielding a regrown OD of less than 0.1 correspond to the MBEC. Six replicates are completed for each concentration of compound as well as controls. […] Levels of crystal violet retained were measured spectrophotometrically at an OD of 595 nm. […]

S. aureus = assay: Murine bloodstream infection model; type: in vivo; settings: S. aureus-infected mice, 20 mg/kg, compared to vehicle control
Procedure: Bacterial loads in the heart (left) and liver (right) of S. aureus-infected mice treated with 20 mg/kg of PK/[…]-1-150 (squares) or vehicle alone (circles). Each symbol represents an individual mouse. Compilation data from three independent experiments are presented. N=14 for vehicle and PK/[…]-1-150. Horizontal lines represent the mean values. **, p<0.01.

MRSA ATCC 33591 = assay: Neutropenic murine thigh model; type: in vivo, S. aureus; settings: 20 mg/kg orally 30 min, 4 and 8 h after inoculation; vs sham-treated mice
Procedure: PK/X17-1-150 (20 mg/kg) and the corresponding vehicle were administered orally after 30 min, 4 and 8 h after bacterial inoculation, whereas levofloxacin (5 mg/kg) and the corresponding vehicle were administered intraperitoneally after 2, 6 and 10 h after bacterial inoculation. N=6 for vehicle i.p., levofloxacin i.p. and for PK/X17-1-150; n=5 for vehicle p.o. Data are expressed as mean values±SD. **, p<0.01; ***, p<0.001.

S. aureus NCTC8325 = assay: Analysis of S. aureus NCTC8325 secretome; settings: 0.5×MIC (PK/X17-1-150 0.15 μM, sorafenib 1.5 μM), 1.5 h

SMILES | MIC [1] [µM] | IC50 ([1]; Staphylococcus aureus, NCTC8325, inhibition of bacterial growth of S. aureus NCTC 8325, obtained by MIC assay) [µM] | MIC [2] [µM] | MIC [3] [µM] | MIC [4] [µM] | cytotoxicity (MTT) [5] | biofilm eradication effect ([6]; S. aureus DSM 4910, after 20 h of compound treatment) | biofilm eradication effect ([6]; S. aureus DSM 4910, after 70 h of compound treatment) | reduction of bacterial load in heart (S. aureus) [log cfu] | reduction of bacterial load in liver (S. aureus) [log cfu] | thigh bacterial load reduction (MRSA ATCC 33591) [log10 cfu/g thigh] | secretome (secreted proteins) vs DMSO (S. aureus NCTC8325)
O=C(Nc1ccc2c(c1)OC(F)(F)O2)Nc1ccc(Cl)c(C(F)(F)F)c1 [Example 4, 1-(4-Chloro-3-(trifluoromethyl)phenyl)-3-(2,2-difluorobenzo[d][1,3]dioxol-5-yl)urea] | 0.3 (≈ 0.118 µg/mL) | 0.3 | 0.3 (≈ 0.118 µg/mL) | 0.3 (≈ 0.118 µg/mL) | 1 (≈ 0.395 µg/mL) | at concentrations higher compared to the antibacterial MICs | strongest effect | most potent effects | 2 | 2 | 1 | Essential cell wall biosynthesis proteins are among the processed proteins; also recorded: strong increase of extracellular proteins
CNC(=O)c1cc(Oc2ccc(NC(=O)Nc3ccc(Cl)c(C(F)(F)F)c3)cc2)ccn1 [Sorafenib, reference compound] | 3 (≈ 1.39 µg/mL) |  | 3 (≈ 1.39 µg/mL) | 5 (≈ 2.32 µg/mL) | 6 (≈ 2.79 µg/mL) |  |  |  |  |  |  | SpsB substrates are secreted; also recorded: strong increase of extracellular proteins
